Source: patent publication US20210346359A1, “Use of CFTR Modulators For Treating Cerebrovascular Conditions” (Qanatpharma AG, priority 2018, published 2021)
Entries after “also recorded” stand apart in the source; their conditions may differ.

Tests used:
[1] = tested on: posterior cerebral arteries; assay: Phenylephrine responses of isolated posterior cerebral arteries; assay type: in vivo, mouse
Protocol: Isolation and functional assessment of resistance arteries: Mouse olfactory (a first branch of the anterior cerebral artery) and PCAs were carefully dissected, cannulated onto micropipettes, stretched to their in vivo lengths and pressurized to 45 mmHg, as previously described (3,6); mouse skeletal muscle resistance arteries were dissected from the cremaster muscle, cannulated and pressurized to 60 mmHg. All functional experiments were conducted in 3-morpholinopropanesulfonic acid (MOPS) buffered saline at 37° C. with no perfusion. Vasomotor responses to phenylephrine (5 μmol/L for posterior cerebral arteries, 10 μmol/L for cremaster skeletal muscle arteries) provided an assessment of vessel viability at the beginning and end of each experiment. Arteries failing to show ≥25% constriction to phenylephrine were excluded.
(§1) Myogenic tone was calculated as the percent constriction in relation to the maximal diameter at each respective transmural pressure: tone (% of diamax)=[(diamax−diaactive)/diamax]×100, where diaactive is the vessel diameter in MOPS containing Ca^2+ and diamax is the diameter in Ca^2+-free MOPS. Analyses of vasomotor responses to phenylephrine used the same calculation, only in this case, diaactive represents the vessel diameter at steady state following application of the given agent and diamax represents the maximal diameter measured under Ca^2+-free conditions.

[2] = tested on: posterior cerebral arteries; assay: Myogenic tone of isolated posterior cerebral arteries after in vivo treatment; set-up: species or system mouse
Description: Myocardial infarction: HF was induced by surgical ligation of the left anterior descending coronary artery (3). Briefly, mice were anaesthetized with isoflurane, intubated with a 20-gauge angiocatheter and ventilated with room air. Under sterile conditions, the thorax and pericardium were opened, and the left anterior descending coronary artery was permanently ligated with 7-0 silk suture (Deknatel: Fall River, USA). In sham-operated controls, the thorax and pericardium were opened, but the left anterior descending coronary artery was not ligated. Following the procedure, the chest was closed and the mice were extubated upon spontaneous respiration. Posterior cerebral arteries (PCAs) were isolated 4-6 weeks post-infarction. […]
Myogenic responses were elicited by step-wise 20 mmHg increases in transmural pressure from 20 mmHg to 80 mmHg (olfactory arteries) or 100 mmHg (posterior cerebral arteries and cremaster skeletal muscle resistance arteries). At each pressure step, vessel diameter (diaactive) was measured once a steady state was reached (5 min). Vessels requiring treatment (e.g., CFTR(inh)-172) were incubated with the reagent in MOPS for 30 min and myogenic responses were then assessed in the presence of that reagent. Following completion of all diaactive measurements, MOPS buffer was replaced with a Ca^2+-free version and maximal passive diameter (diamax) was recorded at each pressure step.
as §1

[3] = Global hemodynamic parameters (CO, TPR, MAP) in heart failure mice; assay type: in vivo, mouse; settings: HF mice, 3 mg/kg daily for 2 days
Protocol: As previously described (9-11), echocardiographic measurements were collected with a 30 MHz mechanical sector transducer (Vevo 770; Visual Sonics, Toronto, Canada) in conjunction with the mean arterial pressure (MAP) measurements (Millar SPR-671 micro-tip mouse pressure catheter; Inter V Medical Inc., Montreal, Canada). The aortic flow velocity-time integral (VTI) was measured using pulse wave Doppler just above the aortic root. The aortic cross-sectional area (CSA) was calculated from the aortic root dimension (ARD): CSA=π(ARD/2)2. Stroke volume (SV), CO and TPR were calculated as: SV=CSA×VTI; CO=SV×HR; TPR=MAP/CO.
Myocardial infarction: HF was induced by surgical ligation of the left anterior descending coronary artery (3). Briefly, mice were anaesthetized with isoflurane, intubated with a 20-gauge angiocatheter and ventilated with room air. Under sterile conditions, the thorax and pericardium were opened, and the left anterior descending coronary artery was permanently ligated with 7-0 silk suture (Deknatel: Fall River, USA). In sham-operated controls, the thorax and pericardium were opened, but the left anterior descending coronary artery was not ligated. Following the procedure, the chest was closed and the mice were extubated upon spontaneous respiration. Posterior cerebral arteries (PCAs) were isolated 4-6 weeks post-infarction.

[4] = target: CFTR (Mus musculus, UniProt P26361); assay: CFTR protein expression in TNF-treated mesenteric artery primary vascular smooth muscle cells; assay type: cell-based; set-up: mesenteric artery segments were isolated, cut into small pieces and digested with trypsin, collagenase and elastase; endogenous in cells; host or cells: primary mesenteric artery vascular smooth muscle cells; settings: 48 h TNF 10 ng/ml + C18 6 μmol/L for last 24 h
Chain of CFTR (P26361 whole entry): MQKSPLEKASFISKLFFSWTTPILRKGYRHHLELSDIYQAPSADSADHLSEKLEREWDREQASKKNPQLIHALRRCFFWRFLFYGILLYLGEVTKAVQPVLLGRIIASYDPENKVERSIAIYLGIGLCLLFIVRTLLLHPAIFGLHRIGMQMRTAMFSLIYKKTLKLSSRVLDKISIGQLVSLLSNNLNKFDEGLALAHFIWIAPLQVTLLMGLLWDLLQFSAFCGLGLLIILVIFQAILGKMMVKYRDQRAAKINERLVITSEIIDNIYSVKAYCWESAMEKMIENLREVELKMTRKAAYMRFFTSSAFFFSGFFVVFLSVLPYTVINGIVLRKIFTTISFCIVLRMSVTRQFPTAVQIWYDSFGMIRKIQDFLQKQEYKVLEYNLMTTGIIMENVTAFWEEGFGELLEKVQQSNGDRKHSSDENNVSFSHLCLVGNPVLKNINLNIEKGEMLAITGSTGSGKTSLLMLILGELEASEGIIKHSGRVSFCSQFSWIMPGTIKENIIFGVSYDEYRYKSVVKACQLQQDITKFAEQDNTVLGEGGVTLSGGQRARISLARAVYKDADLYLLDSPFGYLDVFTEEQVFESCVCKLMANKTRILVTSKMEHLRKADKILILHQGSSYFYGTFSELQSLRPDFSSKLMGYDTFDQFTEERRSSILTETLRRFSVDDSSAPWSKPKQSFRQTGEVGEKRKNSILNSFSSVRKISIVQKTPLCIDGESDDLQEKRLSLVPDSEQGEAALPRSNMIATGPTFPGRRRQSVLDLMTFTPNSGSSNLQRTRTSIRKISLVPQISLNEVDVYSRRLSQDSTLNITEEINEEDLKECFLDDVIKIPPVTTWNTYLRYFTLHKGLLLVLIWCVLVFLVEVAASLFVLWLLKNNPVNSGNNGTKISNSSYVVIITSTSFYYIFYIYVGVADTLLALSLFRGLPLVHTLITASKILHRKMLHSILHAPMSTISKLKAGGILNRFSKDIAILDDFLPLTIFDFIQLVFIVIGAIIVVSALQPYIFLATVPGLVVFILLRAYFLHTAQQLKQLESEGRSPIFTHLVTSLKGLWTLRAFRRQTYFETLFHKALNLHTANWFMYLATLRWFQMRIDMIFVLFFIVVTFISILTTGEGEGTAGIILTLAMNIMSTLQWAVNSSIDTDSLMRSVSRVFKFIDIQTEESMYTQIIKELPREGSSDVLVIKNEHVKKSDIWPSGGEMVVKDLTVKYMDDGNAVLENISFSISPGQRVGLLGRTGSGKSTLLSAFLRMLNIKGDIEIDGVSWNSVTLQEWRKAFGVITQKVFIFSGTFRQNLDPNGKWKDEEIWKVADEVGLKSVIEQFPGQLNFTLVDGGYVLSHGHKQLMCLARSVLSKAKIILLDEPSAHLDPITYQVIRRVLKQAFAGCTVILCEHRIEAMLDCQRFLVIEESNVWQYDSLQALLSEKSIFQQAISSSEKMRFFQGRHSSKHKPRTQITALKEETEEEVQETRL
Protocol: Procedures for isolating and culturing mesenteric artery smooth muscle cells were carried out as described in (10). Briefly, mesenteric artery segments were isolated, cut into small pieces and digested with trypsin, collagenase and elastase. The resulting cell suspension was washed several times in phosphate-buffered saline and plated in Dulbecco's Modified Eagle Medium (DMEM) culture media containing 10% fetal bovine serum and 1% penicillin-streptomycin. Cell cultures were maintained at 37° C. with 5% CO2 and split at […] cells seeding density. Baby hamster kidney fibroblast cells stably expressing wild-type human CFTR (10,17) were maintained in DMEM/F12 media containing 5% fetal bovine serum and 250 μmol/L methotrexate (which activates the CFTR transgene promoter). Cells were maintained under standard cell culture conditions at 37° C. with 5% CO2.
Western blots for CFTR were completed as previously described (12, 18). […]
The primary antibodies were conjugated with either peroxidase-labeled donkey anti-rabbit IgG (GE Healthcare Amersham (Piscataway, USA) cat# NA934) or peroxidase-labeled goat anti-mouse IgG (GE Healthcare Amersham cat# NA931) secondary antibodies. […] Developed films were evaluated densitometrically using “Image J” software (freely available from the NIH); digital images were evaluated with Image Lab software (Bio-Rad).

- log EC50 of phenylephrine response ([1]; posterior cerebral arteries, HF+C18 group, log scale): −5.94±0.21
Compound: O=C(Nc1ncc(C(c2ccccc2Cl)N2CCC(O)C2)s1)C1(c2ccc3c(c2)OCO3)CC1 (stereo not drawn) [C18, 1-(benzo[d][1,3]dioxol-5-yl)-N-(5-((2-chlorophenyl)(3-hydroxypyrrolidin-1-yl)methyl)thiazol-2-yl)cyclopropanecarboxamide]
- phenylephrine dose-response relationship ([1]; posterior cerebral arteries from CFTR knockout mice, 3 mg/kg i.p. daily for 2 days, 3 mg/kg): not affected; also recorded: does not alter
- phenylephrine dose-response relationship normalized to basal tone, HF vs HF+C18 ([1]; posterior cerebral arteries from HF mice, 3 mg/kg i.p. daily for 2 days, 3 mg/kg): curves overlap; also recorded: not significantly different
- phenylephrine dose-response relationship (tone), HF vs HF+C18 ([1]; posterior cerebral arteries from HF mice, 3 mg/kg i.p. daily for 2 days, not normalized, 3 mg/kg): significant difference
- phenylephrine responses ([1]; posterior cerebral arteries from sham-operated mice, 3 mg/kg i.p. daily for 2 days, 3 mg/kg): does not affect; also recorded: does not alter
- posterior cerebral artery myogenic tone ([2]; arteries from CFTR knockout mice, in vivo 3 mg/kg daily for 2 days): not susceptible; also recorded: not observed
- posterior cerebral artery myogenic tone ([2]; arteries from HF mice, in vivo 3 mg/kg daily for 2 days): normalizes; also recorded: reduces
- posterior cerebral artery myogenic tone ([2]; arteries from sham-operated mice, in vivo 3 mg/kg i.p. daily for 2 days): does not affect; also recorded: does not alter
- cardiac injury induced by left anterior descending coronary artery ligation [3]: does not ameliorate
- mean arterial pressure (MAP) [3]: no effect
- total peripheral resistance (TPR) ([3]; 3 mg/kg): no effect; also recorded: lack of effect
- CFTR protein expression after TNF down-regulation [4]: reverses the decline; also recorded: fully restores
